Assay results as given in PMC11051159, “Green Synthesis of Gold Nanoparticles Using Liquiritin and Other Phenolics from Glycyrrhiza glabra and Their Anti-Inflammatory Activity” (Journal of Functional Biomaterials, 2024).
≈ marks a conversion by molar mass, not a printed value. Like-named read-outs stand apart in the source and are kept apart here.

Key:
[1] = tested on: RAW 264.7 cells; assay: Cell viability assay (WST-1); type: cell-based, murine; conditions: for IC50: Mus musculus; for concentration at which cell viability was significantly decreased (cytotoxic): range tested 0–100 μg/mL; for effect on cell viability (in words): 0–100 μg/mL
Method: (§1) The RAW 264.7 cells were seeded at 1 × 10^6 cells/mL in 96-well tissue culture-treated plates for cell viability and nitric oxide assays. The seeded cells were incubated under standard tissue culture conditions at 37 °C in a humidified atmosphere of 5% CO2 for approximately 24 h until the cells reached 70–80% confluence. The cells were subsequently exposed to the relevant AuNP conjugates, total extract, or compounds. After that, the cells were either left unstimulated or stimulated with 1 μg/mL lipopolysaccharide (LPS, from E. coli O111:B4, Sigma-Aldrich) to yield a final concentration range of 0–100 μg/mL of the appropriate treatment. The cells were then incubated overnight under standard tissue culture conditions.
(§2) The supernatants were removed after incubation, and cells were washed with phosphate-buffered saline (PBS, Lonza). Cell viability was assessed by adding 50 μL of a 1/10 dilution of 2-(4-iodophenyl)-3-(4-nitrophenyl)-5-(2,4-disulfophenyl)-2H-tetrazolium (WST-1, Roche, Basel, Switzerland) in complete DMEM medium to each well. Metabolically active cells convert the WST-1 reagent to a formazan that can be measured spectrophotometrically. Formazan formation was determined by reading the plate at 450 nm immediately after adding WST-1 and again after an incubation period of 1 h at 37 °C. The increase in absorbance is proportional to formazan formation and directly proportional to cell viability. The difference between the zero-absorbance reading and 1 hr incubation was used to calculate the percentage of cell viability. Cell viability was calculated as a percentage of the control using the below formula:(1) Cell viability as a % of Control=T1−T0/U1−U0×100 where T1 is the absorbance of the treated sample after 1 h, T0 is the absorbance of the treated at 0 h, U1 is the absorbance of the untreated sample after 1h, and U0 is the absorbance of the untreated sample at 0 h.

[2] = tested on: NO production, RAW 264.7 cells; assay: Nitric oxide (NO) assay (Griess reaction); type: cell-based, murine; conditions: for IC50: Mus musculus, RAW264.7, RAW 264.7, 1 μg/mL LPS, pure compound, ± SEM, read-out: Approximate NO IC50, +LPS, Comp.; for concentration at which NO production / inflammatory activity was reduced: non-toxic concentrations
Method: as §1
In the initial development of the assay, polymyxin inhibition of LPS inflammatory activity was checked. Polymyxin was established to inhibit LPS-induced inflammatory activity in macrophage cultures. Cell culture supernatants were removed after the overnight incubation with the relevant treatment. They were used to determine the amount of nitrite produced by the cells and used as an indication of NO production. The amount of NO produced was determined against a 0–100 μM nitrite standard range (Sigma-Aldrich). Culture supernatants or nitrite standard (50 μL) were mixed with 50 μL of Griess reagent (Sigma-Aldrich). The absorbance was subsequently read spectrophotometrically at 540 nm (Multiskan Ex, Thermo Electron Corporation, Vantaa, Finland), and the amount of NO produced by the cells was quantified. NO levels were not determined at cytotoxic concentrations.
The NO assay based on the Griess reaction was used to assess the production of NO from the RAW cells after the exposure to the NP extract/pure compounds in either the absence or presence of LPS.

[3] = tested on: human liver cells, HepG2; set-up: method as in PMID 31956937; conditions: concentrations ≥ 120 μM, 24 hrs; cited from earlier work
[4] = tested on: PC12 cells; set-up: method as in PMID 19789989; conditions: PC12 cells in the presence of neuronal growth factor, 3- and 5-day periods; cited from earlier work
[5] = tested on: B65 neuroblastomas; set-up: method as in PMID 28970010; conditions: after 48 h; cited from earlier work
[6] = tested on: RAW 264.7 cell; set-up: method as in PMID 18295200, PMID 25871879; conditions: 0–1.6 μM or 0–200 μM, 24 h; cited from earlier work
[7] = Cell viability assay (WST-1); type: cell-based, murine; conditions: mouse, RAW 264.7 cells; −LPS, at concentrations ≥ 50 μg/mL; read-out: percentage of viable cells
Method: as §1, §2

[8] = RAW264.7, RAW 264.7, 1 μg/mL LPS, pure compound/extract, overnight exposure, ± SEM, read-out: Approximate cell viability IC50, +LPS, Comp.
[9] = RAW264.7, RAW 264.7, unstimulated (−LPS), pure compound/extract, overnight exposure, ± SEM, read-out: Approximate cell viability IC50, −LPS, Comp.
[10] = RAW 264.7, absence of LPS (basal)

Row | Compound | IC50 [1, 8] [µg/mL] | IC50 [1, 9] [µg/mL] | concentration at which cell viability was significantly decreased (cytotoxic) [1, 10] [µg/mL] | concentration at which cell viability was significantly decreased (cytotoxic) ([1]; RAW 264.7, presence of LPS) [µg/mL] | IC50 [2] [µg/mL] | effect on NO secretion (in words) [2, 10] | effect on NO secretion (in words) ([2]; RAW 264.7, presence of LPS) | other results
1 | O=C1C[C@@H](c2ccc(O[C@@H]3O[C@H](CO)[C@@H](O)[C@H](O)[C@H]3O)cc2)Oc2cc(O)ccc21 [Comp. 1, liquiritin] | ~60.5 (≈ 145 µM) | ~39.7 (≈ 94.9 µM) | 50 to 100 | 50 to 100 | ~16.5 (≈ 39.4 µM) | did not elicit NO secretion | inhibited NO secretion | concentration at which cell viability was significantly decreased (cytotoxic) ([1]; RAW 264.7, absence of LPS (basal), listed as liquiritin (1)): ≥ 50 µg/mL; concentration at which NO production / inflammatory activity was reduced ([2]; RAW 264.7, presence of LPS, listed as Compound 1): 25 µg/mL; concentration at which NO production / inflammatory activity was reduced ([2]; RAW 264.7, presence of LPS, listed as liquiritin): ≥ 25 µg/mL; HepG2 viability [3]: below 40%; concentration at which cell viability decreased [4]: ≥ 50 µg/mL
2 | O=C(/C=C/c1ccc(O[C@@H]2O[C@H](CO)[C@@H](O)[C@H](O)[C@H]2O)cc1)c1ccc(O)cc1O [Comp. 2, isoliquiritin] | – | – | 100 | – | – | did not affect the level of NO | – | effect on cell viability (in words) ([1]; RAW 264.7, presence of LPS): no cytotoxicity was exhibited; effect on cell viability (in words) ([1]; RAW 264.7, presence of LPS, listed as Isoliquiritin (2)): no effect on viability; effect on cell viability (in words) ([1]; RAW 264.7, presence of LPS, listed as isoliquiritin (2)): did not hinder cell proliferation; concentration at which viability was reduced [5]: 100 µM; effect on RAW 264.7 cell viability (in words) [6]: not affected
3 | O=C(/C=C/c1ccc(O)cc1)c1ccc(O[C@@H]2O[C@H](CO)[C@@H](O)[C@H](O)[C@H]2O)cc1O [Comp. 3, neoisoliquiritin] | – | – | – | – | – | did not affect the level of NO | did not affect the level of NO | –
4 | CC1(C)C=Cc2c(ccc3c2OC[C@@H](c2ccc(O)cc2O)C3)O1 [Comp. 6, glabridin] | ~27.2 (≈ 83.9 µM) | ~28.4 (≈ 87.6 µM) | ≥ 50 | ≥ 25 | ~27.5 (≈ 84.8 µM) | did not affect NO production | inhibited NO secretion | viability [7]: ≤ 30%; percentage viability ([1]; +LPS, at concentrations ≥ 25 μg/mL): 65 to 9%; concentration at which toxicity was seen ([1]; RAW 264.7, LPS status not stated): > 25 µg/mL; concentration at which NO production / inflammatory activity was reduced ([2]; RAW 264.7, presence of LPS): ≥ 12.5 µg/mL
5 | isoliquiritin apioside [Comp. 4] | – | – | – | – | – | did not elicit an inflammatory response | did not impact NO secretion | cell viability reduced to ([1]; +LPS, 25 μg/mL): 60%; cell viability reduced to ([1]; +LPS, 50 μg/mL): 70%
6 | liquiritin apioside [Comp. 5] | – | – | – | – | – | – | – | concentration at which cell viability was increased (mitogenic effect) ([1]; RAW 264.7, presence of LPS): 25 µg/mL; Approximate cell viability IC50, −LPS, Comp. ([1]; RAW 264.7, unstimulated (−LPS), pure compound/extract, overnight exposure, ± SEM): 47.8 ± 0.2 µg/mL; cell viability reduced to ([1]; −LPS, 100 μg/mL): 40%; reduction of cell viability ([1]; −LPS, at concentrations ≥ 50 μg/mL): 40%
